Results as given in patent US20250171499A1, “PHARMACEUTICAL FORMULATIONS AND METHODS FOR THE TREATMENT OF METABOLIC AND LIVER DISORDERS” (Viking Therapeutics, Inc., priority 2022, published 2025).

Legend:
[1] = Pharmacokinetics study of formulations, subcutaneous dosing; format: in vivo; conditions: Formulation 2; SC 0.2 mg/kg; male cynomolgus monkeys
Protocol: Formulation 1 included the compound in a vehicle of 0.1% bovine serum albumin in phosphate buffered saline solution. […] Samples were obtained at 1, 4, 8, 12, 24, 48, 72, 96, 120, 168, 192, 240 and 336 hours after the single dose was administered.

GIP receptor = molecular target: T1, GIP receptor (Homo sapiens, UniProt P48546); assay: Binding assay in the presence or absence of 2% human serum albumin, GIP receptor; conditions: IC50 with 2% HSA to IC50 with 0% HSA
T1 sequence (P48546 22-466): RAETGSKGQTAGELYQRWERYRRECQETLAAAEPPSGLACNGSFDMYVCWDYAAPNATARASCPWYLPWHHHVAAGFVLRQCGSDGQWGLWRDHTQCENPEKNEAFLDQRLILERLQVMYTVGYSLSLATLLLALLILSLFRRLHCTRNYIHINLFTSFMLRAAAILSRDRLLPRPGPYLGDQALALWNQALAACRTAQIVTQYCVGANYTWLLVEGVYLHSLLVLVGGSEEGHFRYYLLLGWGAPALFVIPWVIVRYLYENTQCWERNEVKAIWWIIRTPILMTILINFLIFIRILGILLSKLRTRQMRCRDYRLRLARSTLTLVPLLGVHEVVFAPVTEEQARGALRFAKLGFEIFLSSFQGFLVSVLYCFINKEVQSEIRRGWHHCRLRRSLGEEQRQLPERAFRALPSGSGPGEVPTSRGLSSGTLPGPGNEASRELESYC

GLP-1 receptor = GLP-1 receptor (Homo sapiens, UniProt P43220); conditions: IC50 with 2% HSA to IC50 with 0% HSA
GLP-1 receptor, sequence (P43220 24-463, species assumed): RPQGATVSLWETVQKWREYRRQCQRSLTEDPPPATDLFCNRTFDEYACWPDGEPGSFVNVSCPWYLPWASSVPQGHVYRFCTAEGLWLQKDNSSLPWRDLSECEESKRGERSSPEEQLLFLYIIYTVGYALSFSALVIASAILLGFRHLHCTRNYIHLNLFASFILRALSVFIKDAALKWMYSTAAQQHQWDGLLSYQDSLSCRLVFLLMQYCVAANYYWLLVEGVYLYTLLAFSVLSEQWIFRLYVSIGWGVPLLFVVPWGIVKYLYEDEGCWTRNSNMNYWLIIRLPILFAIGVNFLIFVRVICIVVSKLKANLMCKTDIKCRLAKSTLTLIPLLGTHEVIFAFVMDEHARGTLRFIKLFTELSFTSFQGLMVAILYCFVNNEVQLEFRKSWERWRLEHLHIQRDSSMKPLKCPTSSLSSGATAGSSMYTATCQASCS

## CC[C@H](C)[C@H](NC(=O)[C@H](CC(C)C)NC(=O)[C@H](Cc1c[nH]c2ccccc12)NC(=O)[C@H](CCC(N)=O)NC(=O)[C@@H](NC(=O)[C@H](Cc1ccccc1)NC(=O)[C@H](C)NC(=O)[C@H](CCCCNC(=O)COCCOCCNC(=O)COCCOCCNC(=O)CC[C@H](NC(=O)CCCCCCCCCCCCCCCCCCP(=O)(O)O)C(=O)O)NC(=O)[C@H](CCC(N)=O)NC(=O)[C@H](C)NC(=O)[C@@H](NC(=O)[C@H](CCCCN)NC(=O)[C@H](CC(=O)O)NC(=O)[C@H](CC(C)C)NC(=O)C(C)(C)NC(=O)[C@@H](NC(=O)[C@H](CO)NC(=O)[C@H](Cc1ccc(O)cc1)NC(=O)[C@H](CC(=O)O)NC(=O)[C@H](CO)NC(=O)[C@@H](NC(=O)[C@H](Cc1ccccc1)NC(=O)[C@@H](NC(=O)CNC(=O)[C@H](CCC(=O)O)NC(=O)C(C)(C)NC(=O)[C@@H](N)Cc1ccc(O)cc1)[C@@H](C)O)[C@@H](C)O)[C@@H](C)CC)[C@@H](C)CC)C(C)C)C(=O)N[C@@H](C)C(=O)NCC(=O)NCC(=O)N1CCC[C@H]1C(=O)N[C@@H](CO)C(=O)N[C@@H](CO)C(=O)NCC(=O)N[C@@H](C)C(=O)N1CCC[C@H]1C(=O)N1CCC[C@H]1C(=O)N1CCC[C@H]1C(=O)N[C@@H](CO)C(N)=O [Compound 4]
[1]
  mean half life compared to tirzepatide: twice as long
GIP receptor
  GIP receptor Ratio of HSA:No HSA: 1.25
GLP-1 receptor
  GLP-1 receptor Ratio of HSA:No HSA: 6.42
